In assay [1] the target is T1, CRTH2 (Homo sapiens, UniProt Q9Y5Y4).
T1 sequence (Q9Y5Y4 1-395): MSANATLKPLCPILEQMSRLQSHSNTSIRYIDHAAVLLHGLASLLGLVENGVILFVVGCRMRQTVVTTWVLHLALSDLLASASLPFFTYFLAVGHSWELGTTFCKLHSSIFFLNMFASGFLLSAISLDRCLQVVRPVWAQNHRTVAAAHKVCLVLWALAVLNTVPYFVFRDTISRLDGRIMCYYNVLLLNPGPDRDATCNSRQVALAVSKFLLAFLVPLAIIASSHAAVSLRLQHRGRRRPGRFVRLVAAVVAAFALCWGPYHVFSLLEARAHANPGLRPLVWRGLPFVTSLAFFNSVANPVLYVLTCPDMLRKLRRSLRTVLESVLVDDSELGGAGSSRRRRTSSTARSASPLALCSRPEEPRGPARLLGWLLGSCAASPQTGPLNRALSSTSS
Description: DPBS CD11b antagonist assay (CD11b expression in eosinophils). The conditions noted are these: challenged with 10 nM 15R-Methyl-PGD2, read-out: CD11b Antag IC50(nM) [HuEos-DPBS-vs10nM15R]. The class given is cell-based. Here is the method:
DPBS CD11b Antagonist Assay.
The potential CRTH2 antagonist activity of certain compounds was tested using a CD11b expression assay using essentially the method described by Monneret et al. (J Pharmacol Exp Ther 304:349-55, 2003). Briefly, polymorphonuclear cells (0.5 ml; 10^6/ml cells) in PBS containing 0.9 mM CaCl2 and 0.5 mM MgCl2) were preincubated with various concentrations of test compounds at room temperature for 10 minutes before they were challenged with the agonist 15R-Methyl-PGD2 (10 nM). The incubations were terminated by the addition of ice-cold FACSFlow (BD Biosciences; Cat# 342003) and centrifugation (400 g for 5 minutes at 4° C.). The cells were then incubated for 30 minutes at 4° C. with a mixture of PE-labeled mouse anti-human VLA-4 (5 μl; BD Biosciences) and FITC-labeled mouse anti-human CD11b (10 μl; Beckman Coulter). The cells were then incubated with Optilyse C (0.25 ml; Beckman Coulter) for 15 minutes, centrifuged, and then fixed in PBS (0.4 ml; calcium and magnesium free) containing 1% formaldehyde. The distribution of fluorescence intensities among 60,000 cells was measured by flow cytometry. Eosinophils were gated out on the basis of their granularity (high side scatter) and labeling with VLA-4 (PE fluorescence). CD11b was then measured in the eosinophil region on the basis of fluorescence due to FITC. All data were corrected for the value obtained for the corresponding isotope control antibody.

Assay [2] has as its target T1, CRTH2. Description: Human whole blood CD11b antagonist assay (CD11b expression in eosinophils). The class given is cell-based. Set-up: endogenous in cells; host or cells: eosinophils in human whole blood. The conditions noted are these: challenged with 10 nM 15R-Methyl-PGD2, read-out: CD11b Antag IC50(nM) [HuEos-HuWB-vs10nM15R]. How it is done:
Human Whole Blood CD11B Antagonist Assay (Modified from Nicholson, et al. Pulmonary Pharmacology and Therapeutics: 20 (2007); 52-59).
The potential CRTH2 antagonist activity of certain compounds was tested in human whole blood using an assay that tests the ability of the compounds to block the CD11b expression in eosinophils by 15-R-methyl-PGD2. A CRTH2 antagonist should block CD11b expression by subsequently added 15-Methyl-PGD2. Human whole blood (200 μL) was incubated at 37° C. for 10 minutes in the presence of various concentrations of test compounds before being challenged with the agonist 15R-Methyl-PGD2 (10 nM). Reactions were terminated by the addition of ice-cold PBS+0.5% BSA+2 mMEDTA (1 mL) and centrifugation (300×g for 5 minutes at 4° C.) Cells were then incubated at 4° C. for 10 min in the presence of human IgG. Cells were then incubated for 30-45 min with a mixture of PE-Cy5-labeled mouse anti-human CD16 (10 ul; BD Biosciences) and FITC-labeled mouse anti-human CD11b (10 μL; Beckman Coulter.) After rinsing (1 mL ice-cold PBS+0.5% BSA+2 mMEDTA), red blood cells were lysed by the addition of 1 mL ice-cold H2O to the cell pellet for 30 sec-1 min immediately followed by the addition of 3.5% NaCl (300 μL.) Cells were then rinsed (2×-1 ml ice cold PBS+0.5% BSA+2 mMEDTA) and fixed in PBS containing 1% formaldehyde. The distribution of fluorescence intensities was measured by flow cytometry. Eosinophils were gated out on the basis of their granularity (high side scatter) and absence of CD-16. CD11b was then measured on this eosinophil population on the basis of fluorescence due to FITC.

The structures appear in SMILES notation.

What is called IC50 is the concentration that inhibits the measured activity by half.

In the case of `Cc1cc(C(=O)c2ccccc2S(=O)(=O)N2CCOCC2)c(C)n1CC(=O)O` [I-56, 2-(2,5-dimethyl-3-(2-(morpholinosulfonyl)benzoyl)-1H-pyrrol-1-yl)acetic acid], the IC50 on CRTH2 [1] was more than 500 nM; on CRTH2 [2], 100 to 500 nM.

Take `Cc1c(Cc2ccccc2S(=O)(=O)N2CCCC2)c(-c2ccccc2)c(C)n1CC(=O)O` [I-57, 2-(2,5-dimethyl-3-phenyl-4-(2-(pyrrolidin-1-ylsulfonyl)benzyl)-1H-pyrrol-1-yl)acetic acid]: the IC50 is less than 5 nM on CRTH2 [1] and 5 to 100 nM on CRTH2 [2].

Consider `CCOC(=O)Cn1c(C)c(C#N)c(Cc2ccccc2S(=O)(=O)N2CCCC2)c1C` [I-63, Ethyl 2-(3-cyano-2,5-dimethyl-4-(2-(pyrrolidin-1-ylsulfonyl)benzyl)-1H-pyrrol-1-yl)acetate], for which the IC50 on CRTH2 [1] and at CRTH2 [2] was more than 500 nM throughout.

Regarding `Cc1nn(CC(=O)O)c(C)c1Cc1ccccc1S(=O)(=O)N1CCCC1` [I-72, 2-(3,5-dimethyl-4-(2-(pyrrolidin-1-ylsulfonyl)benzyl)-1H-pyrazol-1-yl)acetic acid], the IC50 on CRTH2 [1] was 100 to 500 nM; at CRTH2 [2], more than 500 nM.

The values are drawn from patent US8674115B2, “CRTH2 modulators” (Ironwood Pharmaceuticals, Inc., priority 2009, dated 2014).
